The text below walks through data of patent US20090291938A1 (TAKEDA PHARMACEUTICAL COMPANY LIMITED, priority 2007, published 2009).

The first assay has as its system HT29 human colorectal adenocarcinoma cell line. The assay is described as follows: cell proliferation assay (Cell Titer-Glo luminescent cell viability assay). The format is cell-based. Conditions: HT-29, 72 h, read-out: pIC50 (converted). Summed up:
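Cells grown in DMEM with 10% FBS and exposed to compounds for 72 h. Viability read by CellTiter-Glo luminescence, expressed as percentage of DMSO-treated cells.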
For `COc1cc(C(=O)NC2CCN(C)CC2)ccc1Nc1ncc2c(n1)N(C1CCCC1)CC1(CCC1)C(=O)N2C` [Compound 179, 4-(9′-Cyclopentyl-5′-methyl-6′-oxo-5′,6′,8′,9′-tetrahydrospiro[cyclobutane-1,7′-pyrimido[4,5-b][1,4]diazepine]-2′-ylamino)-3-methoxy-N-(1-methylpiperidin-4-yl)benzamide], the IC50 was less than 1 nM.

Take `COc1cc(C(=O)NC2CCN(C)CC2)ccc1Nc1ncc2c(n1)N(C1CCCCC1)CC(C)(C)C(=O)N2C` [Compound 109, 4-(9-cyclohexyl-5,7,7-trimethyl-6-oxo-6,7,8,9-tetrahydro-5H-pyrimido[4,5-b][1,4]diazepin-2-ylamino)-3-methoxy-N-(1-methylpiperidin-4-yl)benzamide]: the IC50 was 1 to 2.51 nM.

Still in this assay, the particulars now being: HT-29, cell proliferative assay, HT29 cells, 72 hr treatment, values given as ranges, read-out: pIC50 (converted).
For the compound `C=CCC1CN(C2CCCCC2)c2nc(Nc3ccc(C(=O)N[C@H]4CCCNC4)cc3OC)ncc2N(C)C1=O` (stereo partly drawn) [Compound 192, 4-(7-allyl-9-cyclohexyl-5-methyl-6-oxo-6,7,8,9-tetrahydro-5H-pyrimido[4,5-b][1,4]diazepin-2-ylamino)-3-methoxy-N-((S)-piperidin-3-yl)benzamide], the IC50 was greater than 10 nM.

`C#CCC1CN(C2CCCC2)c2nc(Nc3ccc(C(=O)NC4CCNCC4)cc3OC)ncc2N(C)C1=O` (stereo not shown) [Compound 211, 4-(9-cyclopentyl-5-methyl-6-oxo-7-(prop-2-ynyl)-6,7,8,9-tetrahydro-5H-pyrimido[4,5-b][1,4]diazepin-2-ylamino)-3-methoxy-N-(piperidin-4-yl)benzamide]: the IC50 was 1 to 2.51 nM.

Regarding `COc1cc(C(=O)NN2CCN(C)CC2)ccc1Nc1ncc2c(n1)N(C1CCCC1)CC(C)(C)C(=O)N2C` [Compound 106, 4-(9-cyclopentyl-5,7,7-trimethyl-6-oxo-6,7,8,9-tetrahydro-5H-pyrimido[4,5-b][1,4]diazepin-2-ylamino)-3-methoxy-N-(4-methylpiperazin-1-yl)benzamide], the IC50 is less than 1 nM.

Turning to `C=C[C@@]1(C)CN(C2CCCC2)c2nc(Nc3ccc(C(=O)NC4CCN(C)CC4)cc3OC)ncc2N(C)C1=O` [Compound 241, (S)-4-(9-cyclopentyl-5,7-dimethyl-6-oxo-7-vinyl-6,7,8,9-tetrahydro-5H-pyrimido[4,5-b][1,4]diazepin-2-ylamino)-3-methoxy-N-(1-methylpiperidin-4-yl)benzamide], the IC50 was greater than 10 nM.

Turning to `CCC#CCC1CN(C2CCCC2)c2nc(Nc3ccc(C(=O)NC4CCN(C)CC4)cc3OC)ncc2N(C)C1=O` (stereo not shown) [Compound 219, 4-(9-cyclopentyl-5-methyl-6-oxo-7-(pent-2-ynyl)-6,7,8,9-tetrahydro-5H-pyrimido[4,5-b][1,4]diazepin-2-ylamino)-3-methoxy-N-(1-methylpiperidin-4-yl)benzamide], the IC50 is 3.16 to 10 nM.

Turning to `COc1cc(C(=O)N[C@@H]2CCCNC2)ccc1Nc1ncc2c(n1)N(C1CCCC1)CC(C)(C)C(=O)N2C` [Compound 100, (R)-4-(9-cyclopentyl-5,7,7-trimethyl-6-oxo-6,7,8,9-tetrahydro-5H-pyrimido[4,5-b][1,4]diazepin-2-ylamino)-3-methoxy-N-(piperidin-3-yl)benzamide], the IC50 was 3.16 to 10 nM.

Take `COc1cc(C(=O)N[C@H]2CCCN(C)C2)ccc1Nc1ncc2c(n1)N(C1CCCC1)CCC(=O)N2C` [Compound 54, (S)-4-(9-cyclopentyl-5-methyl-6-oxo-6,7,8,9-tetrahydro-5H-pyrimido[4,5-b][1,4]diazepin-2-ylamino)-3-methoxy-N-(1-methylpiperidin-3-yl)benzamide]: the IC50 is 3.16 to 10 nM.

Turning to `C=CC1(C)CN(C2CCCC2)c2nc(Nc3ccc(C(=O)NN4CCN(C)CC4)cc3OC)ncc2N(C)C1=O` (stereo not shown) [Compound 242, 4-(9-cyclopentyl-5,7-dimethyl-6-oxo-7-vinyl-6,7,8,9-tetrahydro-5H-pyrimido[4,5-b][1,4]diazepin-2-ylamino)-3-methoxy-N-(4-methylpiperazin-1-yl)benzamide], the IC50 is greater than 10 nM.
